Experimental data taken from patent publication US9040527B2, “Pyrimidinediamine kinase inhibitors” (Rigel Pharmaceuticals, Inc., priority 2008, dated 2015).
pIC50: −log10 of the molar value.

What was measured:
PLK1 [1] = target: T1, PLK1 (Homo sapiens, UniProt P53350); experiment: Cellular PLK1 assay in K562 cells overexpressing CDC25C; type: cell-based; parameters: endogenous in cells; host or cells: K562 (human chronic myelogenous leukemia) overexpressing CDC25C, nocodazole-arrested; details: nocodazole arrested, cdc25c p-Ser198 readout
T1 sequence (P53350 whole entry): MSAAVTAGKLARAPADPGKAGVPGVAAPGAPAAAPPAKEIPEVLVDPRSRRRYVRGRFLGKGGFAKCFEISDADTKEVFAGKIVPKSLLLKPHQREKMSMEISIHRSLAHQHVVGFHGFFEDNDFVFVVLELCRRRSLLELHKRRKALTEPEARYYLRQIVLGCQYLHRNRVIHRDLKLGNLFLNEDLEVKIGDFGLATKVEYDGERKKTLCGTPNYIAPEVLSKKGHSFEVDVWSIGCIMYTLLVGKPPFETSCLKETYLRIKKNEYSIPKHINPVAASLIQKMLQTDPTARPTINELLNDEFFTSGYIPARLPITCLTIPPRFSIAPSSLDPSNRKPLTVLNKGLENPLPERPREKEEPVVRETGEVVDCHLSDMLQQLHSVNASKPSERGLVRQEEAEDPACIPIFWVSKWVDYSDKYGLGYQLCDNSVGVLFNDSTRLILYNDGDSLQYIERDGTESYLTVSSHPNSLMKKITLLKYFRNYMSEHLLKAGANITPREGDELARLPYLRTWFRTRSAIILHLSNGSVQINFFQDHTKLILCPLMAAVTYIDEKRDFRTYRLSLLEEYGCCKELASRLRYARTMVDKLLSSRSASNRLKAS
Description: (§1) Inhibition of PLK1 was measured by quantifying phosphorylation of PLK1 substrates using chemiluminescent and fluorogenic probes. The protocols for these assays are provided below.
1. Culturing of K562 Cells
Human chronic myelogenous leukemia K562 cells (American Tissue Culture Collection) overexpressing CDC25C, were grown in Growth Medium having the following composition: Iscove Dulbecco's Modified Eagle's Medium (“Iscove DMEM”, Mediatech/Cellgro, Cat. #10-013-CV), 10% Fetal Bovine Serum (“FBS”, SAFC Biosciences, Cat. #12106-500M), and 1% penicillin/streptomycin (“pen-strep”, Mediatech/Cellgro, Cat. #30-002-CI). The cells were plated in 96 well round bottom tissue culture plates (Fisher, Costar* Cell Culture plates, Cat. #07-200-95) at 100,000 cells per 50 μL of Growth Medium per well. Nocodazole (Sigma, Cat. # M1404) was added to the growth media to arrest the cells in the G2 or M phase, at 333 nM concentration. The cells were incubated with nocodazole for 18 hours at 37° C. prior to addition of tested compounds.
2. Treatment of Cells with the Tested Compounds
Solutions of tested compounds in DMSO at different concentrations were prepared using serial dilutions. Each compound was tested at 8 concentration points, 10 μM, 3.3 μM, 1.11 μM, 0.37 μM, 0.12 μM, 0.04 μM, 0.014 μM, 0.005 μM, duplicate replicates.
Two controls were performed: “DMSO alone” control in which nocodazole and DMSO were present but no compounds were added, and “nocodazole alone” control, in which only nocodazole was present, but neither DMSO nor compounds were added.
The solutions of compounds were prepared by diluting 10 mM compound 1:1 in DMSO (5 μL 10 mM compound and 5 μL DMSO), followed by 1:3 serial dilutions of compound in DMSO performed by diluting 3 μL of higher concentration compound solution serially into 6 μL DMSO to give 3-fold dilutions. Next, 3 μL of each compound solution at each concentration was transferred to 750 μL of Growth Medium. In “DMSO alone” control 3 μL of DMSO alone was added to 750 μL of Growth Medium.
After the diluted compounds were mixed well in the Growth Medium, 50 μL of each compound solution in DMSO/Growth Medium was transferred to each well of the 96-plate containing cells in 50 μL of Growth Medium/Nocodazole.
The cells and compounds were incubated for 120 minutes at 37° C., in an atmosphere containing 5% CO2.
3. Fixation and Permeabilization of the Cells
After the cells were incubated with compounds, the cells were spun down at 1,000 rpm for 5 minutes at 4° C. and supernatants were removed by flicking the plates. Cells were then washed with 200 μl of ice cold PBS, spun down again and supernatants removed. Cells were then fixed and permeabilized by addition of 100 μL/well of Fixation and Permeabilization Solution (1× buffer provided in BD Biosciences Cytofix/Cytoperm™ Fixation/Permeabilization kit, Cat. #554714) and incubation for 20 minutes at room temperature. The fixative was then removed by centrifugation (5 minutes at 2,000 rpm), and plates were flicked to remove the fixative and washed twice, each time with 200 μL/well BD Perm/Wash buffer (10× concentrate provided in BD Biosciences Cytofix/Cytoperm™ Fixation/Permeabilization kit, Cat. #554714, 1× buffer prepared by dilution in distilled H2O).
Cells were spun down at 1,000 rpm for 5 minutes at 4° C. Supernatants were removed by flicking the plates. A solution of a primary antibody specific for cdc25cp-Ser198 was prepared by diluting Rabbit cdc25c (Ser198) antibody (Cell Signaling, #9529L) 1:50 in a Fluorescence Activated Cell Sorting (“FACS”) Buffer (2% FBS in PBS). The cell pellets were resuspended in 50 μL of the primary antibody solution. 50 μL of FACS buffer was added to unstained controls. Staining was allowed to proceed overnight at room temperature.
The plates were then washed by addition of 200 μL of FACS Buffer to each well, were centrifuged and the supernatant was removed. […]

PLK1 [2] = target: T1, PLK1; experiment: In vitro PLK1 ELISA assay (biochemical); parameters: purchased Cell Signalling 7728; details: for IC50: ELISA, CHK2-derived peptide substrate, read-out: PLK1 IC50 (μM) biochemical assay
Description: as §1
In Vitro PLK1 ELISA Assay
1. Preparation of Assay Plates.
Costar 96-well black or white solid flat high binding plates (Fisher Scientific, Catalog No. 07-200-591) were coated with Neutravidin (Pierce, Catalog No. 31000) using the following protocol. A 0.01 mg/mL solution of Neutravidin in 1× Phosphate Buffered Saline (“PBS”, Cellgro/Mediatech, Catalog No. 21-040-CV) was added to each well (100 μL/well) and was incubated for 18-24 hours at 4° C. The plates were then washed with 1× Phosphate Buffer Saline—Tween (“PBST”, Calbiochem, Catalog No. 524653) buffer using a plate washer. The plates were treated with bovine serum albumin (“BSA”, Sigma, Catalog No. A7906) to block non-specific binding sites, by adding a 2% BSA solution in 1×PBST buffer to each well (100 μL/well) and incubating the plates for 1 hour at room temperature. The plates were then washed with 1×PBST buffer using a plate washer.
2. PLK1-Catalyzed Phosphorylation Reaction
An aqueous buffer solution A having the following composition was prepared:
20 mM HEPES (Cellgro/Mediatech, Catalog No. 25-060Ci), pH 7.2;
5 mM MgCl2 (Sigma, Catalog No. M2393);
2 mM MnCl2.4H2O (EM Biosciences, Catalog No. MX0185-2);
1 mM Dithiothreitol (“DTT”, Fluka, Catalog No. B4184).
Next, the substrate solution B was prepared by adding 2.6 μL of 10 mM ATP (Sigma, Catalog No. A7699) and 6.4 μL of the 1 mM PLK1 substrate, CHK2-derived peptide Biotin-SSLETVSTQELYSIP (custom synthesized at Anaspec) SEQ ID: No. 1, to 4691 μL of the buffer solution A. The concentration of the ATP in solution B is 5.44 μM (1.36×); the concentration of the PLK1 substrate in solution B is 1.36 μM (1.36×).
Compound solutions C of varying concentrations for each compound were prepared by dissolving each compound in dimethylsulfoxide (DMSO, Sigma, Catalog No. D2650) to varying concentrations, followed by adding 2 μL of each solution to 38 μL of the buffer solution A, thereby forming 10× compound solutions in 5% DMSO.
A PLK1 solution D was prepared by adding 8.4 μL of 100 μg/mL PLK1 (Cell Signalling, Catalog No. 7728) to 1392 μL of the buffer solution A, thereby forming 0.6 μg/mL (6×) PLK1 solution.
The aqueous 1.36× substrate solution B was added to each well (44 μL/well) resulting in binding of the substrate to the plate via biotin/neutravidin interaction. Then 10× compound solutions C for each tested compound at each tested concentration were added to each well (6 μL/well). Next, 6×PLK1 solution D was added to each well (10 μL/well).
The final concentrations of tested compounds in each well were 10 μM, 3.3 μM, 1.1 μM, 0.36 μM, 0.12 μM, 0.04 μM, 0.014 μM, and 0.005 μM.
The obtained reaction mixtures were incubated in the wells for 45 minutes at room temperature, allowing PLK1-catalyzed phosphorylation of the substrate to proceed. The plates were then washed with 1×PBST solution using a plate washer, such that the bound phosphorylated or unphosphorylated substrate remains attached to the wells upon washing.
The washed plates were developed by treating the plates with a primary antibody that is specific for the phosphorylated substrate, followed by treatment with a secondary antibody that is specific for the primary antibody, and that is capable of catalyzing a reaction that results in a chemiluminescent readout. The chemiluminescent readout was used to quantify the substrate phosphorylation, and, consequently, to determine IC50 values for PLK1 inhibition, and was measured using a luminometer (Perkin Elmer/Wallac plate reader). The plate development protocol is described below.
A mixed antibody solution E was prepared by adding 1 μL of the primary antibody, rabbit p-CHK2(T68) (Rockland, Catalog No. 401280), and 1 μL of the secondary antibody, HRP-goat anti-rabbit IgG (Jackson Immunoresearch Catalog No. 111-035-003) to 10000 μL of 0.1% BSA in 1×PBST buffer. […]

[3] = read-out: IC50 in biochemical ELISA assay (less than 0.01 μM)
[4] = read-out: IC50 in biochemical in vitro PLK1 ELISA assay (less than 10 μM)

IC50 (PLK1 [1])	IC50 (PLK1 [2])	pIC50 (PLK1 [2]; [3])	pIC50 (PLK1 [2]; [4])	SMILES
0.5 to 5 µM	< 0.5 µM	> 8.00	> 5.00	CN1CCN(c2cccc(Nc3ncc(F)c(Nc4ccc5c(c4)NC(=O)CO5)n3)c2)CC1 [compound 17, 6-(5-fluoro-2-(3-(4-methylpiperazin-1-yl)phenylamino)pyrimidin-4-ylamino)-2H-benzo[b][1,4]oxazin-3(4H)-one]
0.5 to 5 µM	< 0.5 µM	–	> 5.00	O=C1COc2ccc(Nc3nc(Nc4cccc(N5CCNCC5)c4)ncc3F)cc2N1 [compound 18, 6-(5-fluoro-2-(3-(piperazin-1-yl)phenylamino)pyrimidin-4-ylamino)-2H-benzo[b][1,4]oxazin-3(4H)-one]
0.5 to 5 µM	< 0.5 µM	–	> 5.00	CN1CCN(c2cccc(Nc3ncc(F)c(Nc4ccc5c(c4)NCCO5)n3)c2)CC1 [compound 20, N4-(3,4-dihydro-2H-benzo[b][1,4]oxazin-6-yl)-5-fluoro-N2-(3-(4-methylpiperazin-1-yl)phenyl)pyrimidine-2,4-diamine]
≥ 10 µM	< 0.5 µM	–	> 5.00	CN1CCN(c2cccc(Nc3nccc(Nc4ccc5c(n4)NCCO5)n3)c2)CC1 [compound 21, N4-(3,4-dihydro-2H-pyrido[3,2-b][1,4]oxazin-6-yl)-N2-(3-(4-methylpiperazin-1-yl)phenyl)pyrimidine-2,4-diamine]
≥ 10 µM	≥ 10 µM	–	–	Cc1ccc(Nc2ncc(F)c(Nc3ccc4c(n3)NCCO4)n2)cc1N1CCN(C)CC1 [compound 22, N4-(3,4-dihydro-2H-pyrido[3,2-b][1,4]oxazin-6-yl)-5-fluoro-N2-(4-methyl-3-(4-methylpiperazin-1-yl)phenyl)pyrimidine-2,4-diamine]
0.5 to 5 µM	< 0.5 µM	–	> 5.00	CC(C)Oc1ccc(N2CCN(C)CC2)cc1Nc1ncc(F)c(Nc2ccc3c(n2)NCCO3)n1 [compound 23, N4-(3,4-dihydro-2H-pyrido[3,2-b][1,4]oxazin-6-yl)-5-fluoro-N2-(2-isopropoxy-5-(4-methylpiperazin-1-yl)phenyl)pyrimidine-2,4-diamine]
≥ 10 µM	< 0.5 µM	–	> 5.00	CN1CCN(c2cc(Nc3ncc(F)c(Nc4ccc5c(n4)NCCO5)n3)cc(C(F)(F)F)c2)CC1 [compound 24, N4-(3,4-dihydro-2H-pyrido[3,2-b][1,4]oxazin-6-yl)-5-fluoro-N2-(3-(4-methylpiperazin-1-yl)-5-(trifluoro-methyl)phenyl)pyrimidine-2,4-diamine]
< 0.5 µM	< 0.5 µM	> 8.00	> 5.00	CC(C)Oc1cc(Nc2ncc(F)c(Nc3ccc4c(n3)NC(=O)CO4)n2)cc(N2CCN(C)CC2)c1 [compound 25, 6-(5-fluoro-2-(3-isopropoxy-5-(4-methylpiperazin-1-yl)phenylamino)pyrimidin-4-ylamino)-2H-pyrido[3,2-b][1,4]oxazin-3(4H)-one]
< 0.5 µM	< 0.5 µM	> 8.00	> 5.00	CC(C)Oc1cc(Nc2ncc(F)c(Nc3ccc4c(n3)NCCO4)n2)cc(N2CCN(C)CC2)c1 [compound 26, N4-(3,4-dihydro-2H-pyrido[3,2-b][1,4]oxazin-6-yl)-5-fluoro-N2-(3-isopropoxy-5-(4-methylpiperazin-1-yl)phenyl)pyrimidine-2,4-diamine]
0.5 to 5 µM	< 0.5 µM	–	> 5.00	CC(C)c1ccc(N2CCN(C)CC2)cc1Nc1ncc(F)c(Nc2ccc3c(n2)NCCO3)n1 [compound 27, N4-(3,4-dihydro-2H-pyrido[3,2-b][1,4]oxazin-6-yl)-5-fluoro-N2-(2-isopropyl-5-(4-methylpiperazin-1-yl)phenyl)pyrimidine-2,4-diamine]
